Some results are limits rather than exact numbers.

This assay has as its target T1, human β3 adrenergic receptor (Homo sapiens, UniProt P13945).
T1 construct: expressed in transfected cells; host or cells: Chinese hamster ovary (CHO) cells, stably transfected
As to the kind of experiment: Functional assay: cAMP production (LANCE TR-FRET) in CHO cells stably transfected with cloned β3 adrenergic receptor. It is filed as cell-based. As to conditions: Table 4; human β3 functional activity; read-out: Human β Binding. An outline of the steps: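 Agonist-stimulated cAMP in CHO cells stably expressing human β3 receptor, 6,000 cells per well in HBSS/HEPES/0.1% BSA with 0.6 mM IBMX, 30 min at room temperature. LANCE TR-FRET readout converted to cAMP via standard curve; maximal stimulation defined with isoproterenol.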

T1 sequence (P13945 whole entry): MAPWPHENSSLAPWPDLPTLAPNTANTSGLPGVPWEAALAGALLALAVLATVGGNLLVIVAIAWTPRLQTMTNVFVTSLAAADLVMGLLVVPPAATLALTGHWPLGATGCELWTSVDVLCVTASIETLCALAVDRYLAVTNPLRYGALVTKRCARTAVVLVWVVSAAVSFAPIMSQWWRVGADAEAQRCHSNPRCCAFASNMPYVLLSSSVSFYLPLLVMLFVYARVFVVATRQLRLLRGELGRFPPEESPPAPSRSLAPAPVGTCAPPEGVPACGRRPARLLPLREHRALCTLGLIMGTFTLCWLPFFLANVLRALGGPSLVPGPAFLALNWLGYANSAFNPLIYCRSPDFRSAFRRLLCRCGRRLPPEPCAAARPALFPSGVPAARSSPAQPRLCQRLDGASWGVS

For the molecule `O=C(Cc1nnc(-c2ccc(Cl)cc2)[nH]1)Nc1ccc(C[C@@H]2CC[C@H]([C@H](O)c3ccccc3)N2)cc1` [Example 23], the EC50 lay in the range of 0.011 to 0.1 µM.
With `O=C(Cc1nnc(-c2cscn2)[nH]1)Nc1ccc(C[C@@H]2CC[C@H]([C@H](O)c3ccccc3)N2)cc1` [Example 24] the figure was 0.001 to 0.01 µM; with `O=C(Cc1nnc(-c2ccncc2)[nH]1)Nc1ccc(C[C@@H]2CC[C@H]([C@H](O)c3ccccc3)N2)cc1` [Example 25], 0.011 to 0.1 µM.
The same measure for `O=C(Cc1nnc(-c2cc(Cl)cc(Cl)c2)[nH]1)Nc1ccc(C[C@@H]2CC[C@H]([C@H](O)c3ccccc3)N2)cc1` [Example 26]: 0.101 to 1 µM.
With `O=C(Cc1nnc(-c2ccn[nH]2)[nH]1)Nc1ccc(C[C@@H]2CC[C@H]([C@H](O)c3ccccc3)N2)cc1` [Example 27] the figure was 0.001 to 0.01 µM; with `Cn1nccc1-c1nnc(CC(=O)Nc2ccc(C[C@@H]3CC[C@H]([C@H](O)c4ccccc4)N3)cc2)[nH]1` [Example 28], 0.011 to 0.1 µM.
As for `O=C(Cn1nnnc1-c1ccc(F)cc1)Nc1ccc(C[C@@H]2CC[C@H]([C@H](O)c3ccccc3)N2)cc1` [Example 29], the EC50 lay within 0.011 to 0.1 µM.
The same measure for `O=C(Nc1ccc(C[C@@H]2CC[C@H]([C@H](O)c3ccccc3)N2)cc1)c1ccccc1CCc1ccccc1` [Example 30]: 0.101 to 1 µM; for `O=C(Nc1ccc(C[C@@H]2CC[C@H]([C@H](O)c3ccccc3)N2)cc1)c1ccccc1COc1ccccc1` [Example 31]: 0.101 to 1 µM; for `O=C(Nc1ccc(C[C@@H]2CC[C@H]([C@H](O)c3ccccc3)N2)cc1)c1ccccc1CCn1cccc1` [Example 32]: 0.011 to 0.1 µM.
With `O=C(Cc1nnc(Cc2ccccc2)[nH]1)Nc1ccc(C[C@@H]2CC[C@H]([C@H](O)c3ccccc3)N2)cc1` [Example 33] the figure was 0.011 to 0.1 µM.
The same measure for `O=C(Nc1ccc(C[C@@H]2CC[C@H]([C@H](O)c3ccccc3)N2)cc1)C1CCCN1c1cc(Cl)cc(Cl)c1` (stereo partly drawn) [Example 35]: 0.011 to 0.1 µM; for `COc1cccc(N2CCCC2C(=O)Nc2ccc(C[C@@H]3CC[C@H]([C@H](O)c4ccccc4)N3)cc2)c1` (stereo partly drawn) [Example 36]: 0.001 to 0.01 µM.
As for `O=C(Nc1ccc(C[C@@H]2CC[C@H]([C@H](O)c3ccccc3)N2)cc1)C1CCCN1c1ccc(Cl)cc1` (stereo partly drawn) [Example 37], the EC50 was in the range of 0.101 to 1 µM.
The same measure for `O=C(Nc1ccc(C[C@@H]2CC[C@H]([C@H](O)c3ccccc3)N2)cc1)C1CCCN1c1cccc(Br)c1` (stereo partly drawn) [Example 38]: 0.001 to 0.01 µM; for `O=C(Nc1ccc(C[C@@H]2CC[C@H]([C@H](O)c3ccccc3)N2)cc1)C1CCCN1c1cccc(I)c1` (stereo partly drawn) [Example 39]: 0.011 to 0.1 µM.
The same measure for `O=C(Nc1ccc(C[C@@H]2CC[C@H]([C@H](O)c3ccccc3)N2)cc1)C1CCCN1c1nc2ccccc2s1` (stereo partly drawn) [Example 40]: 0.011 to 0.1 µM; for `O=C(Nc1ccc(C[C@@H]2CC[C@H]([C@H](O)c3ccccc3)N2)cc1)C1CCCN1c1nccs1` (stereo partly drawn) [Example 41]: 0.001 to 0.01 µM; for `O=C(Cc1ccccn1)Nc1ccc(C[C@@H]2CC[C@H]([C@H](O)c3ccccc3)N2)cc1` [Example 43]: 0.011 to 0.1 µM.
With `O=C(Cc1cccnc1)Nc1ccc(C[C@@H]2CC[C@H]([C@H](O)c3ccccc3)N2)cc1` [Example 44] the figure was 0.101 to 1 µM.
In the case of `O=C(Cc1ccncc1)Nc1ccc(C[C@@H]2CC[C@H]([C@H](O)c3ccccc3)N2)cc1` [Example 45], the EC50 fell in the range of 1 to 3 µM.
With `O=C(Cc1ncccn1)Nc1ccc(C[C@@H]2CC[C@H]([C@H](O)c3ccccc3)N2)cc1` [Example 46] the figure was 0.011 to 0.1 µM; with `O=C(CCc1nc(-c2ccccc2)no1)Nc1ccc(C[C@@H]2CC[C@H]([C@H](O)c3ccccc3)N2)cc1` [Example 47], 0.001 to 0.01 µM; with `O=C(Cn1ncc2ccccc2c1=O)Nc1ccc(C[C@@H]2CC[C@H]([C@H](O)c3ccccc3)N2)cc1` [Example 49], 0.001 to 0.01 µM.
The same measure for `O=C(Cn1c(=O)[nH]c2ccccc2c1=O)Nc1ccc(C[C@@H]2CC[C@H]([C@H](O)c3ccccc3)N2)cc1` [Example 50]: less than 0.001 µM; for `O=C(Cn1nc(Cl)ccc1=O)Nc1ccc(C[C@@H]2CC[C@H]([C@H](O)c3ccccc3)N2)cc1` [Example 51]: 0.001 to 0.01 µM; for `Cc1cn(CC(=O)Nc2ccc(C[C@@H]3CC[C@H]([C@H](O)c4ccccc4)N3)cc2)c(=O)[nH]c1=O` [Example 52]: 0.001 to 0.01 µM.
With `O=C(Cn1[nH]c(=O)c2ccccc2c1=O)Nc1ccc(C[C@@H]2CC[C@H]([C@H](O)c3ccccc3)N2)cc1` [Example 53] the figure was 0.001 to 0.01 µM; with `NC(=O)c1nn(CC(=O)Nc2ccc(C[C@@H]3CC[C@H]([C@H](O)c4ccccc4)N3)cc2)c(=O)c2ccccc12` [Example 54], 0.001 to 0.01 µM.
For `O=C(Cn1cnc2sccc2c1=O)Nc1ccc(C[C@@H]2CC[C@H]([C@H](O)c3ccccc3)N2)cc1` [Example 55], the EC50 was 0.001 to 0.01 µM.
With `O=C(Cn1c(=O)[nH]c(=O)c2ccccc21)Nc1ccc(C[C@@H]2CC[C@H]([C@H](O)c3ccccc3)N2)cc1` [Example 57] the figure was 0.001 to 0.01 µM; with `Cc1cccc2c(=O)n(CC(=O)Nc3ccc(C[C@@H]4CC[C@H]([C@H](O)c5ccccc5)N4)cc3)cnc12` [Example 58], 0.001 to 0.01 µM; with `O=C(Cn1nnc2ccccc2c1=O)Nc1ccc(C[C@@H]2CC[C@H]([C@H](O)c3ccccc3)N2)cc1` [Example 59], 0.001 to 0.01 µM.
For `Cn1ncc2c(=O)n(CC(=O)Nc3ccc(C[C@@H]4CC[C@H]([C@H](O)c5ccccc5)N4)cc3)cnc21` [Example 60], the EC50 was 0.001 to 0.01 µM.
The same measure for `O=C(Cn1ccc2ncccc2c1=O)Nc1ccc(C[C@@H]2CC[C@H]([C@H](O)c3ccccc3)N2)cc1` [Example 62]: 0.001 to 0.01 µM; for `O=C(Cn1ccc(=O)[nH]c1=O)Nc1ccc(C[C@@H]2CC[C@H]([C@H](O)c3ccccc3)N2)cc1` [Example 63]: 0.001 to 0.01 µM; for `O=C(Cn1cccnc1=O)Nc1ccc(C[C@@H]2CC[C@H]([C@H](O)c3ccccc3)N2)cc1` [Example 64]: 0.001 to 0.01 µM.
The same measure for `O=C(Cn1ccc(=O)nc1)Nc1ccc(C[C@@H]2CC[C@H]([C@H](O)c3ccccc3)N2)cc1` [Example 66]: 0.101 to 1 µM; for `O=C(Cn1ccncc1=O)Nc1ccc(C[C@@H]2CC[C@H]([C@H](O)c3ccccc3)N2)cc1` [Example 67]: 0.011 to 0.1 µM; for `O=C(Cc1n[nH]c(=O)[nH]1)Nc1ccc(C[C@@H]2CC[C@H]([C@H](O)c3ccccc3)N2)cc1` [Example 68]: 0.011 to 0.1 µM.
The same measure for `O=C(CC1NC(=O)NC1=O)Nc1ccc(C[C@@H]2CC[C@H]([C@H](O)c3ccccc3)N2)cc1` (stereo partly drawn) [Example 69]: 0.101 to 1 µM; for `O=C(Cc1ccccc1F)Nc1ccc(C[C@@H]2CC[C@H]([C@H](O)c3ccccc3)N2)cc1` [Example 70]: 0.011 to 0.1 µM; for `O=C(Cc1c(F)cccc1F)Nc1ccc(C[C@@H]2CC[C@H]([C@H](O)c3ccccc3)N2)cc1` [Example 71]: 0.001 to 0.01 µM.
Consider `O=C(Cc1cccc(F)c1F)Nc1ccc(C[C@@H]2CC[C@H]([C@H](O)c3ccccc3)N2)cc1` [Example 72], for which the EC50 fell in the range of 0.011 to 0.1 µM.
The same measure for `O=C(Cc1nnc[nH]1)Nc1ccc(C[C@@H]2CC[C@H]([C@H](O)c3ccccc3)N2)cc1` [Example 73]: 0.011 to 0.1 µM.
`Cc1nc(CC(=O)Nc2ccc(C[C@@H]3CC[C@H]([C@H](O)c4ccccc4)N3)cc2)no1` [Example 74]: the EC50 was in the range of 0.001 to 0.01 µM.
The same measure for `O=C(Cc1nnn[nH]1)Nc1ccc(C[C@@H]2CC[C@H]([C@H](O)c3ccccc3)N2)cc1` [Example 75]: 0.011 to 0.1 µM; for `Cn1nnnc1CC(=O)Nc1ccc(C[C@@H]2CC[C@H]([C@H](O)c3ccccc3)N2)cc1` [Example 76]: 0.011 to 0.1 µM; for `O=C(Cn1cnnn1)Nc1ccc(C[C@@H]2CC[C@H]([C@H](O)c3ccccc3)N2)cc1` [Example 77]: 0.011 to 0.1 µM.
For the molecule `O=C(Cn1ncnn1)Nc1ccc(C[C@@H]2CC[C@H]([C@H](O)c3ccccc3)N2)cc1` [Example 78], the EC50 fell in the range of 0.011 to 0.1 µM.
The same measure for `Cc1cn(CC(=O)Nc2ccc(C[C@@H]3CC[C@H]([C@H](O)c4ccccc4)N3)cc2)nn1` [Example 79]: 0.001 to 0.01 µM; for `O=C(Cn1cncn1)Nc1ccc(C[C@@H]2CC[C@H]([C@H](O)c3ccccc3)N2)cc1` [Example 80]: 0.011 to 0.1 µM; for `O=C(Cn1nccn1)Nc1ccc(C[C@@H]2CC[C@H]([C@H](O)c3ccccc3)N2)cc1` [Example 81]: 0.011 to 0.1 µM.
The same measure for `Cc1nonc1CC(=O)Nc1ccc(C[C@@H]2CC[C@H]([C@H](O)c3ccccc3)N2)cc1` [Example 82]: 0.001 to 0.01 µM.
With `CC1=NN(CC(=O)Nc2ccc(C[C@@H]3CC[C@H]([C@H](O)c4ccccc4)N3)cc2)C(=O)C1` [Example 83] the figure was 0.011 to 0.1 µM; with `O=C(CC1CCCNC1=O)Nc1ccc(C[C@@H]2CC[C@H]([C@H](O)c3ccccc3)N2)cc1` (stereo partly drawn) [Example 85], 0.101 to 1 µM.
For the molecule `O=C(CN1CCCC1=O)Nc1ccc(C[C@@H]2CC[C@H]([C@H](O)c3ccccc3)N2)cc1` [Example 87], the EC50 was 0.001 to 0.01 µM.
The same measure for `O=C(CN1CCCCC1=O)Nc1ccc(C[C@@H]2CC[C@H]([C@H](O)c3ccccc3)N2)cc1` [Example 89]: 0.001 to 0.01 µM.
The same measure for `O=C(CN1CCOC1=O)Nc1ccc(C[C@@H]2CC[C@H]([C@H](O)c3ccccc3)N2)cc1` [Example 90]: 0.011 to 0.1 µM; for `O=C(CN1CCSC1=O)Nc1ccc(C[C@@H]2CC[C@H]([C@H](O)c3ccccc3)N2)cc1` [Example 91]: 0.001 to 0.01 µM.
For `O=C(Cc1cnccn1)Nc1ccc(C[C@@H]2CC[C@H]([C@H](O)c3ccccc3)N2)cc1` [Example 94], the EC50 lay in the range of 0.001 to 0.01 µM.
With `Cc1ccc(OCC(=O)Nc2ccc(C[C@@H]3CC[C@H]([C@H](O)c4ccccc4)N3)cc2)nn1` [Example 95] the figure was 0.011 to 0.1 µM; with `Cc1nc2c(CC(=O)Nc3ccc(C[C@@H]4CC[C@H]([C@H](O)c5ccccc5)N4)cc3)cccn2n1` [Example 97], 1 to 3 µM.

The record behind these values is patent US8399480B2, “Hydroxymethyl pyrrolidines as beta 3 adrenergic receptor agonists” (Merck Sharp & Dohme Corp., priority 2008, dated 2013).
